Measurements from patent US11535599B2, “Benzisoxazole derivative” (Sumitomo Pharma Co., Ltd., priority 2020, dated 2022).

What was measured:
[1] = Thermogravimetric analysis (TGA); format: physicochemical; conditions: until melting temperature
Description: Thermogravimetric analysis: the thermogravimetric analysis (TGA) was carried out with a TGA instrument (TGA Q500, TA Instruments, New Castle, Del., USA). For each trial, about 1-10 mg of the solid sample was put in an open aluminium pot, and heated at a rate of 5-10° C./min under a nitrogen purge of 60 mL/min. The data analysis was carried out with Universal Analysis 2000 Version 4.1D (TA Instruments, New Castle, Del., USA).

[2] = Differential scanning calorimetry (DSC); format: physicochemical
Description: Differential scanning calorimetry: the thermal characteristic was evaluated with a differential scanning calorimetry (DSC) instrument (DSCQ1000, TA Instruments, New Castle, Del., USA). For each trial, about 1-10 mg of the solid sample was put in a standard aluminium pot aerated with a pinhole, and heated at a rate of 5-10° C./min under a nitrogen purge of 50 mL/min. The data analysis was carried out with Universal Analysis 2000 Version 4.1D (TA Instruments, New Castle, Del., USA).

[3] = Dynamic vapor adsorption (DVS), hygroscopicity; format: physicochemical; conditions: 0-90% RH, 25° C.
Description: Dynamic vapor adsorption: the hygroscopicity was evaluated with a dynamic vapor adsorption (DVS) instrument (IGAsorp, Hiden Isochema, Warrington, England) at room temperature. The water adsorption/desorption was studied as a function of relative humidity (RH) in the range of 0-90% at 25° C. The relative humidity in the chamber was made to increase by 10% RH, and the humidity was retained until the humidity state of the atmosphere and the weight variation of solid achieved equilibrium. The equilibration test was continued until the test was passed or failed 5 or 10 hours later. At this time point, RH increased by 10%, and the absorption process was repeated until the RH achieved to 90% RH and the humidity state achieved equilibrium. During the test, the moisture sorption was being monitored. For the desorption, the relative humidity was decreased in a similar manner to measure a perfect adsorption/desorption cycle. The cycle was repeated as appropriate. All the experiments were operated in dm/dt mode (weight variation over time) to determine each equilibrating endpoint. About 5-10 mg of the solid was used. The date analyses were carried out with Hisorp v4.02 (Hiden Isochema, Warrington, England).

[4] = Shaking suspensions of crystalline forms in solvents (form conversion); format: physicochemical; conditions: shaking forms I-III in several kinds of solvents for 9-11 days
Description: Crystalline Example 13 of form III can be prepared by shaking a suspension of Example 13 in an organic solvent (e.g. ethanol, chloroform, acetonitrile, tetrahydrofuran, ethyl acetate, acetone, and tetrahydrofuran/heptane mixture (1:1)) at about 50° C. for 9-11 days. Or, it can be prepared by shaking a suspension of Example 13 in an organic solvent (e.g. acetonitrile, ethyl acetate, acetone, acetone/water mixture (1:1), and tetrahydrofuran/heptane mixture (1:1)) at about 25° C. for 9-11 days. Or, it can be prepared by shaking a suspension of a mixture of forms I and II of Example 13 in an organic solvent (e.g. ethanol, 2-propanol, chloroform, acetonitrile, tetrahydrofuran, ethyl acetate, acetone, and tetrahydrofuran/heptane mixture (1:1)) at about 50° C. for 9-11 days. Or, it can be prepared by shaking a suspension of a mixture of forms I and II of Example 13 in an organic solvent (e.g. 2-propanol, chloroform, acetonitrile, tetrahydrofuran, ethyl acetate, acetone, methanol/water mixture (1:1), 2-propanol/water mixture (1:1), acetone/water mixture (1:1), and tetrahydrofuran/heptane mixture (1:1)) at about 25° C. for 9-11 days. Or, it can be prepared by heating a solution of Example 13 in tert-butyl methyl ether at about 80° C. for about one hour, and leaving the solution to stand at room temperature for a day. […]

[5] = test system: oxaliplatin chemotherapy-induced peripheral neuropathy model; experiment: Anti-allodynia effect in chemotherapy-induced peripheral neuropathy model (acetone test); format: in vivo, rat; conditions: Example 13 100 mg/kg oral once a day 17 times; duloxetine 30 mg/kg oral single
Source text: As one of chemotherapy-induced peripheral neuropathy, sensory disturbance due to neuropathy caused by a platinating agent that is an anticancer agent such as cisplatin and oxaliplatin is known, and the symptom is difficult to be recovered even after the medication is discontinued. The therapeutic effect for sensory disturbance caused by repetitive administration of oxaliplatin was studied in the present test.
To male Crl: CD (SD) rats (7 weeks old) (CHARLES RIVER LABORATORIES JAPAN, INC.), oxaliplatin (5 mg/kg) was intraperitoneally administered for the two consecutive days in a week, totally 6 times, to prepare chemotherapy-induced peripheral neuropathy models. The compound of Example 13 (100 mg/kg) was repeatedly orally administered once a day, totally 17 times. […] In the acetone test, 0.1 mL of acetone was sprayed to the foot sole of the rat hind paw, and the reaction was evaluated according a scoring (Cold Score). When there was no reaction for 20 seconds after spraying acetone, Score 0 was recorded and the observation was stopped. When there was any reaction for the 20 seconds, the observation was continued until 40 seconds after spraying, and the score was recorded according to the evaluation scale. The acetone spray was done twice each for right and left hind paws, and the total score was calculated. […]

[6] = test system: levodopa-induced dyskinesia in 6-OHDA unilateral lesion model; experiment: Effect for inhibiting levodopa-induced dyskinesia; format: in vivo, rat; conditions: Examples 30 or 100 mg/kg, rasagiline 0.2 or 0.6 mg/kg, daily for two weeks
Source text: A unilateral lesion model of nigrostriatal dopamine neuron induced with 6-hydroxydopamine (6-OHDA) is broadly used for evaluating the drug efficacy for treating Parkinson's disease, as mentioned in Test 2. In addition, it is known that dyskinesia is developed when the present model receives repetitive administration of levodopa, which is similar to the phenomenon that patients of Parkinson's disease who have received long-term administration of levodopa develop dyskinesia. With the present model, the effect of the present compound on the dyskinesia induced by repetitive administration of levodopa was evaluated. As shown in Test 2, a unilateral lesion model of nigrostriatal dopamine neuron was prepared. One day before starting the repetitive administration of levodopa, levodopa methyl ester hydrochloride (5.86 mg/kg) containing benserazide hydrochloride ([…]) (whose ratio was 4:1 in terms of free form) was intraperitoneally administered to the model, and the rotational behavior of the model was observed from 20 minutes to 140 minutes after the administration. The models were classified considering three factors of the total rotation number (20-140 minutes after the administration), the later term of the rotation (120-140 minutes after the administration), and the rotational duration, so that the dispersion of each group could be equal. Two days after the classification, the repetitive administration of levodopa methyl ester hydrochloride (6 mg/kg) and benserazide hydrochloride (12 mg/kg) once a day for two weeks was started. […] The evaluation of dyskinesia was done after one week and two weeks of the repetitive administration. […]

[7] = test system: reserpine-induced Parkinson's disease model mouse; experiment: Potentiating effect of levodopa-induced hyperactivity in reserpine-induced Parkinson's disease model mouse; format: in vivo; conditions: Examples 12.5 or 25 mg/kg oral; rasagiline 3 or 10 mg/kg; with levodopa 200 mg/kg i.p.
Description: Dopamine-depleted mice due to reserpine treatment are model mice of akinesia symptoms in Parkinson's disease, said symptoms are relieved with levodopa (L-DOPA). The effect of the present compounds for potentiating the levodopa's effect was tested.
In the present test, male Crl: CD1 (ICR) mice (CHARLES RIVER LABORATORIES JAPAN, INC.) were used. 20-24 hours before starting the movement measurement, reserpine (3 mg/kg) was intraperitoneally administered to the mouse. One hour before starting the movement measurement, the present compound (12-.5 mg/kg or 25 mg/kg of. Examples 1, 2, 3, 4, and 5) was orally administered to the mouse. Shortly before starting the movement measurement, levodopa (200 mg/kg) with benserazide whose amount was ¼ of levodopa in free form was intraperitoneally administered to the mouse. The movement measurement was carried out for 90 minutes, and each total movement was compared.

[8] = test system: unilateral lesion model of nigrostriatal dopamine neuron induced with 6-OHDA; experiment: Extending duration of levodopa-induced rotational behavior in 6-OHDA unilateral lesion model; format: in vivo, rat; conditions: Examples 10 or 30 mg/kg oral; rasagiline 0.6 mg/kg; with levodopa 5 mg/kg i.p.

Structure (SMILES): C[C@H](c1noc2ccccc12)S(N)(=O)=O [Example 13 form I, (1R)-1-(1,2-benzoxazol-3-yl)ethane-1-sulfonamide]
- weight reduction in TGA [1]: no weight reduction
- crystalline stability (DSC) [2]: high
- weight variation in DVS [3]: ≤ 1%

Structure (SMILES): C[C@H](c1noc2ccccc12)S(N)(=O)=O [Example 13 form III, (1R)-1-(1,2-benzoxazol-3-yl)ethane-1-sulfonamide]
- relative stability of crystalline forms [4]: most stable form

Structure (SMILES): CNCC[C@H](Oc1cccc2ccccc12)c1cccs1 [duloxetine, reference compound]
- Cold Score in acetone test [5]: significantly lower Cold Score

Structure (SMILES): C#CCN[C@@H]1CCc2ccccc21 [rasagiline, reference compound]
- dyskinesia induced by repetitive administration of levodopa (AIMS score) [6]: significantly got worse
- levodopa-induced hyperactivity (total movement, 90 minutes) [7]: a tendency to increase the movement, but the increase had no statistically-significant difference
- rotational number in the late phase (100-120 minutes) [8]: significantly increased the rotational number in the late phase
